From EP4458820A1 (Shanghai Institute of Materia Medica, Chinese Academy of …, priority 2021, dated 2023)

Legend:
[1] = biological target: T1, THR-α (Homo sapiens, UniProt P10827); experiment: in vitro agonist activity at the molecular level (AlphaScreen detection), THR-α; assay type: biochemical; conditions: in vitro molecular evaluation system; for Emax: read-out: THR-α Rel % Activity of T3
T1 sequence (P10827 1-410 isoform P10827-2): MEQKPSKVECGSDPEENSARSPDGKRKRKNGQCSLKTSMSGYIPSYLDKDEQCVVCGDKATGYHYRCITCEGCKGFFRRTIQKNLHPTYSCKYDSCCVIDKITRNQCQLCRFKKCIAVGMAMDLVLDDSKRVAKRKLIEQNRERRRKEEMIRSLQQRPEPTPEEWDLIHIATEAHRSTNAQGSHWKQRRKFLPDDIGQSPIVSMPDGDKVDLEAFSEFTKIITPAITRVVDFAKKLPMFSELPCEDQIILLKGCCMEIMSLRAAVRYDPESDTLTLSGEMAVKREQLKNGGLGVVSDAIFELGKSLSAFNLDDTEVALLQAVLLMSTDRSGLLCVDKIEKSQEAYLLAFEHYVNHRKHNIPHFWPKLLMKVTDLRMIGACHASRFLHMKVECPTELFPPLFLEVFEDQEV

[2] = biological target: T2, THR-β (Homo sapiens, UniProt P10828); experiment: in vitro THR β agonist activity at the molecular level (AlphaScreen detection); assay type: biochemical; conditions: in vitro molecular evaluation system; for Selectivity: THR-β versus THR-α; for Emax: read-out: THR-β Rel % Activity of T3
T2 construct: GST; made in house
T2 sequence (P10828 1-461): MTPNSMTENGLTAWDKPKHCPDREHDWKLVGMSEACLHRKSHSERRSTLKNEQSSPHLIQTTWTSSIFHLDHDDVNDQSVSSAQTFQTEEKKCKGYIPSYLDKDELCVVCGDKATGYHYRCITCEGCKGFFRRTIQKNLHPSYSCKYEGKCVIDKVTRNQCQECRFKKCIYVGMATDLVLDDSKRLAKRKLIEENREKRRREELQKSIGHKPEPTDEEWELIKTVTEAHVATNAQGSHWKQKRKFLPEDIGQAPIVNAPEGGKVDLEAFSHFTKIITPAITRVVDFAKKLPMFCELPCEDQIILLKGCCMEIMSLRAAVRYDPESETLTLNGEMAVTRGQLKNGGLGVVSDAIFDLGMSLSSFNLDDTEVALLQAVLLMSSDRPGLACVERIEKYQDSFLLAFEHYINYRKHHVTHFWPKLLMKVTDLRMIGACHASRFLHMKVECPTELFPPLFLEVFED
Method: At the molecular level, the binding ability of the compound to thyroid hormone receptor β (THR β) was measured by AlphaScreen detection. Firstly, recombinant GST-THR β fusion proteins were constructed, followed by compound-receptor binding reactions in 384-well plates.

EC50 [1] [nM] | Emax [1] [%] | EC50 [2] [nM] | Selectivity [2] | Emax [2] [%] | SMILES
57.2 | 62.7 | 8.3 | 6.89 | 83 | Cc1cc(-c2ccc(F)cc2)nc2ccc(Oc3c(Cl)cc(-n4nc(N)c(=O)[nH]c4=O)cc3Cl)cc12 [Compound 60, 6-amino-2-(3,5-dichloro-4-((2-(4-fluorophenyl)-4-methylquinolin-6-yl)oxy)phenyl)-1,2,4-triazine-3,5(2H,4H)-dione]
280 | 62.5 | 71.7 | 3.9 | 84.3 | Cc1cc(-c2ccco2)nc2ccc(Oc3c(Cl)cc(-n4nc(C#N)c(=O)[nH]c4=O)cc3Cl)cc12 [Compound 15, 2-(3,5-Dichloro-4-((2-(furan-2-yl)-4-methylquinolin-6-yl)oxy)phenyl) -3,5-dioxo-2,3,4,5-tetrahydro-1,2,4-triazine-6-carbonitrile]
429 | 38.4 | 120 | 4.2 | 92.3 | Cc1cc(C2CCCCC2)nc2ccc(Oc3c(Cl)cc(-n4nc(N)c(=O)[nH]c4=O)cc3Cl)cc12 [Compound 134, 6-amino-2-(3,5-dichloro-4-((2-cyclohexyl-4-methylquinolin-6-yl)oxy)phenyl)-1,2,4-triazine-3,5(2H,4H)-dione]
248 | 67.5 | 31.5 | 7.85 | 76.3 | Nc1nn(-c2cc(Cl)c(Oc3ccc4nccc(Cl)c4c3)c(Cl)c2)c(=O)[nH]c1=O [Compound 99, 6-amino-2-(3,5-dichloro-4((4-chloroquinolin-6-yl)oxy)phenyl)-1,2,4-triazine-3,5(2H,4H)-dione]
> 50000 |  | 379 |  | 71.8 | Cc1cc(-c2cccs2)nc2ccc(Oc3c(Cl)cc(-n4nc(C#N)c(=O)[nH]c4=O)cc3Cl)cc12 [Compound 19, 2-(3,5-Dichloro-4-((2-(thiophen-2-yl) -4-methylquinolin-6-yl)oxy)phenyl) -3,5-dioxo-2,3,4,5-tetrahydro-1,2,4-triazine-6-carbonitrile]

SMILES | EC50 [1] [nM] | Emax [1] [%] | EC50 [2] [nM] | Selectivity [2] | Emax [2] [%]
Cc1cc(-c2ccoc2)nc2ccc(Oc3c(Cl)cc(-n4nc(C#N)c(=O)[nH]c4=O)cc3Cl)cc12 [Compound 17] | 1240 | 57.6 | 296 | 4.2 | 73.7
